How the values were obtained:
[1] = test system: splenic T cells (Th17 differentiation); assay: In vitro Th17 differentiation, flow cytometry of IL-17A-producing CD4+ T cells; format: cell-based, mouse; conditions: 1 or 5 μM during differentiation
Description: (A) Flow cytometry of IL-17A-producing CD4^+ T cells. Splenic T cells were co-treated with verteporfin (C1) (1 or 5 μM) during Th17 differentiation in vitro. (B) Flow cytometry of IL-17A-producing CD4^+ T cells. Murine in vitro differentiated Th17 cells were stimulated with PMA plus ionomycin and co-treated with verteporfin (C1) (1 or 5 μM) for 30 min. (C) Flow cytometry of Foxp3-producing […] T cells. Splenic T cells were co-treated with verteporfin (C1) (5 μM) during Treg differentiation in vitro. (D) Flow cytometry of Foxp3-producing CD4^+ T cells, which were differentiated from CD4^+ T cells of wild-type or Lck-GLK transgenic mice.
CD4^+ splenic T cells were purified from mice. Cells (5×10^5) were cultured in 1 ml RPMI medium in 48-well plates coated with anti-CD3 (2 μg/ml) and anti-CD28 (3 μg/ml) antibodies. For Th17 differentiation, splenic CD4^+ cells were cultured in the medium containing IL-23 recombinant proteins (50 ng/ml, R&D), IL-6 recombinant proteins (20 ng/ml, R&D), TGF-β recombinant proteins (5 ng/ml, R&D), anti-IL-4 (5 μg/ml, Biolegend), and anti-IFN-γ (5 μg/ml, Biolegend) antibodies. For Th1 differentiation, CD4^+ splenic cells were cultured in the medium containing IL-12 recombinant proteins (5 ng/ml, R&D) and anti-IL-4 antibodies (1 μg/ml, Biolegend).

murine primary T cells = assay: ELISA of cytokines in supernatants of murine primary T cells stimulated with anti-CD3/CD28; format: cell-based, mouse; conditions: 5 μM or 10 μM for 3 days
Description: Means±SD are shown, (b) ELISA of IL-17A in supernatants of human T cells. T cells were stimulated with anti-CD3/CD28 and treated with C1 (verteporfin) (1 μM or 5 μM) or C2 (1 μM or 5 μM) for 3 days. HC, healthy control; SLE, systemic lupus erythematosus; RA, rheumatoid arthritis; AS, ankylosing spondylitis; PsA, psoriatic arthritis; PSS, primary Sjögren's syndrome. Means±SD are shown. C1 denotes verteporfin; C2 denotes alexidine dihydrochloride.
We further studied whether IL-17A production is abolished by the inhibitors of GLK-induced AhR-RORγt complex in human and murine T cells. We first tested the inhibitor experiment using murine T cells stimulated with TCR signaling (anti-CD3 plus anti-CD28 antibodies). […] Next, we studied the blocking effect of IL-17 production by the treatment of C1 (verteporfin) or C2 (alexidine dihydrochloride) using human peripheral blood T cells. […] Taken together, GLK inhibitors (verteporfin and alexidine dihydrochloride) inhibit GLK-induced AhR-RORγt complex and IL-17A production in human autoimmune patient T cells, as well as the disease severity of autoimmune animal models. Thus, GLK, GLK signaling, or GLK-induced AhR-RORγt complex can be a promising therapeutic target for autoimmune diseases.

GLK dimers = biological target: T1, GLK dimers (Homo sapiens, UniProt Q8IVH8); assay: Co-immunoprecipitation of Flag-tagged GLK and GFP-fusion GLK in HEK293T cells; format: cell-based; conditions: HEK293T co-IP
T1 construct: expressed in transfected cells; host or cells: HEK293T
T1 sequence (Q8IVH8 whole entry, the tested form may be a part): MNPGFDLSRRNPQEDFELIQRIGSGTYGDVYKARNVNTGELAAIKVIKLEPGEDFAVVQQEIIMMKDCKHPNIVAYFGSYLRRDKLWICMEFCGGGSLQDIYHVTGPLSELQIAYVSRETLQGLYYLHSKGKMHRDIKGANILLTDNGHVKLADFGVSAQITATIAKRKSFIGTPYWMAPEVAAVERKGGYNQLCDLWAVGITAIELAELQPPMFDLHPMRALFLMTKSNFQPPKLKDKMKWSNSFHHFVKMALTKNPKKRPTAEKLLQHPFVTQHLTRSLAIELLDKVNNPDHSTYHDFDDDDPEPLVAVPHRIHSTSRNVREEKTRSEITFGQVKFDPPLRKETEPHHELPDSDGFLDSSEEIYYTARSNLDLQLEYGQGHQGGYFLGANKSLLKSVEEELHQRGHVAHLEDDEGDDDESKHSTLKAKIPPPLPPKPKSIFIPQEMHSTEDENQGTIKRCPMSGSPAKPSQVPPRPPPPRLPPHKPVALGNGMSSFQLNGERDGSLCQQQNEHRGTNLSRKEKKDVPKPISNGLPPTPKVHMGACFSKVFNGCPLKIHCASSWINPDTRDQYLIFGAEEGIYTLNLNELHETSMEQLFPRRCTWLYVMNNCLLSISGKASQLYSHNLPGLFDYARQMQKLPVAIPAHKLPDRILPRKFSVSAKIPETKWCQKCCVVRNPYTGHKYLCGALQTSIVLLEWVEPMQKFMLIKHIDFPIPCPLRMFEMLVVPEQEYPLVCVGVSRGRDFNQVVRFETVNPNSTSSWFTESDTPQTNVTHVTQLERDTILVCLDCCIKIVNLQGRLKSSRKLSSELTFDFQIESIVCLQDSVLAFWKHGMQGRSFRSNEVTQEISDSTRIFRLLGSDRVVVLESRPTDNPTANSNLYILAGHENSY
Excerpt: (A) The molecular docking of GLK kinase domain structure with C1 (verteporfin). A three-dimensional structure model depicts the binding of C1 to the predicted GLK kinase domain containing phosphorylated Ser-170. The putative binding affinity was −7.4 kcal/mol. (B) The molecular docking of GLK kinase domain structure with C2 (alexidine dihydrochloride). A three-dimensional structure model depicts the binding of C2 to the predicted GLK kinase domain containing phosphorylated Ser-170. The putative binding affinity was −7.0 kcal/mol. (C) Co-immunoprecipitation (co-IP) of Flag-tagged GLK and GFP-fusion GLK using lysates of HEK293T cells co-transfected with Flag-GLK and GFP-GLK plasmids. Cells were treated with C1 (verteporfin) or C2 (alexidine dihydrochloride). (D) Administration of the GLK inhibitor C1 (0.556 nmole/g) or C2 (0.085 nmole/g) every 3 days for 30 days in the LLC/luc metastatic lung cancer mouse model. (E) The luciferase activity in mice treated with C1 (verteporfin), C2 (alexidine dihydrochloride), or vehicle was detected by IVIS Spectrum. (F) Luminescent intensity of photons emitted from LLC/luc cells in the images in (e) was quantified. (G) Representative immunohistochemistry of H&E in lung tissues from mice treated with C1 (verteporfin), C2, or vehicle. Scale bar, 0.5 cm. […]

`C=Cc1c(C)c2cc3nc(cc4[nH]c(cc5nc(cc1[nH]2)C(C)=C5CCC(=O)O)c(CCC(=O)OC)c4C)[C@@]1(C)C3=CC=C(C(=O)OC)[C@H]1C(=O)OC` [C1, verteporfin] was tested, and the Th17 differentiation [1] was “inhibited”, the “TCR-induced IFN-γ level” value (murine primary T cells) was “partially reduced” and the “TCR-induced IL-17A production” value (murine primary T cells) was “drastically abolished”. For the same compound, the “TCR-induced IL-17B level” value (murine primary T cells) was “not decreased”, the “TCR-induced IL-17E level” value (murine primary T cells) was “not decreased” and the “TCR-induced IL-17F level” value (murine primary T cells) was “not decreased”. For the same compound, the “TCR-induced TNF-α level” value (murine primary T cells) was “partially reduced” and the “dimerization of Flag-tagged GLK protein and GFP-GLK fusion protein” value (GLK dimers) was “blocked”.
